# According to patent publication US20160289186A1, “FLUOROMETHYL-SUBSTITUTED PYRROLE CA[…]” (Grunenthal GmbH, priority 2013, published 2016):
# Biological target: T1, Human CaV2.2 channels (Homo sapiens, UniProt Q00975)
# T1 construct: expressed in transfected cells; host or cells: HEK293
# Assay: Fluorescent (FLIPR) assay for CaV2.2 channels using potassium depolarization to induce channel opening
# Format: cell-based
# Conditions: 3 μM compound; 30 mM KCl assay buffer (inactivated channel state); HEK293 cells stably expressing human CaV2.2
# From the text: In the process, the Ca^2+ influx is quantified in the FLIPR assay with the aid of a Ca^2+-sensitive dye (type Fluo-4, Molecular Probes Europe BV, Leiden, the Netherlands) in a fluorescent imaging plate reader (FLIPR 3, Molecular Devices, Sunnyvale, USA), as described hereinafter.
# Human CaV2.2 channels were stably expressed in HEK293 cells together with alpha2-delta and beta subunits of voltage gated calcium channels. In addition, an inwardly rectifying potassium channel (Kir2.3) was stably expressed in these cells to augment control of the cell membrane potential by the concentration of extracellular potassium ions. Raise of the extracellular potassium concentration leads to depolarization of the membrane potential and thus regulates the voltage dependent state of CaV2.2 channels. For preparation, cells were seeded in black poly-D-lysine coated 96-well plates (Becton Dickinson, Biocoat 4640) in 100 μL medium [500 mL DMEM/F-12 plus Glutamax (Invitrogen 31331-093) plus 5.5 mL MEM NEAA 100× (Invitrogen 11140-035) plus 50 mL FBS decomplemented (Invitrogen 10270-106) plus 200 μg/mL Geneticin (Invitrogen 10131-027) plus 50 μg/mL Hygromycin B (Invitrogen 10687-010) plus 2 μg/mL Blasticidin (anti-bl5b Invivo-Gen) plus 0.2 μg/mL Puromycin (A 11138-03)] at a cell density of 30.000 cells per well. Plates were incubated at 37° C. (5% CO2) for 20 to 23 h. On the day of experiment medium was discarded and cells were loaded with Fluo 4 by addition of 100 μL of basic assay buffer (10 mM HEPES, 1 mM KCl, 149 mM NaCl, 0.8 mM CaCl2, 1.7 mM MgCl2, 10 mM Glucose, 0.1% BSA. pH 7.4) containing 2 μM Fluo 4 (Molecular Probes; F-14201), 0.01% pluronic acid (Molecular Probes; P-6866) and 2.5 mM probenecid (Molecular Probes; P36400). Cells were incubated in the dark at 25° C. for 60 min. Then dye containing buffer was discarded and 100 μL basic (1 mM KCl) or alternative (30 mM KCl) assay buffer was added. The alternative assay buffer contained altered concentrations of KCl (30 mM) and NaCl (120 mM) and was used in order to promote the inactivated channel state. After that 25 μL of basic or alternative assay buffer with or without test compound were added and cells were incubated again in the dark at 25° C. for 15 min. Fluorescence intensity was measured on a FLIPR 3 instrument (Molecular Devices Corp., Sunnyvale, Calif.) with excitation at 480 nm and emission at 535 nm. After continuously reading fluorescence for 30 sec, 50 μL of basic assay buffer containing 210 mM KCl (NaCl omitted) were added for depolarization. Peak fluorescent signal intensity was determined and the amplitude of the peak signal, normalized to base line, was used to measure channel inhibition by test compounds.
# T1 sequence (Q00975 whole entry): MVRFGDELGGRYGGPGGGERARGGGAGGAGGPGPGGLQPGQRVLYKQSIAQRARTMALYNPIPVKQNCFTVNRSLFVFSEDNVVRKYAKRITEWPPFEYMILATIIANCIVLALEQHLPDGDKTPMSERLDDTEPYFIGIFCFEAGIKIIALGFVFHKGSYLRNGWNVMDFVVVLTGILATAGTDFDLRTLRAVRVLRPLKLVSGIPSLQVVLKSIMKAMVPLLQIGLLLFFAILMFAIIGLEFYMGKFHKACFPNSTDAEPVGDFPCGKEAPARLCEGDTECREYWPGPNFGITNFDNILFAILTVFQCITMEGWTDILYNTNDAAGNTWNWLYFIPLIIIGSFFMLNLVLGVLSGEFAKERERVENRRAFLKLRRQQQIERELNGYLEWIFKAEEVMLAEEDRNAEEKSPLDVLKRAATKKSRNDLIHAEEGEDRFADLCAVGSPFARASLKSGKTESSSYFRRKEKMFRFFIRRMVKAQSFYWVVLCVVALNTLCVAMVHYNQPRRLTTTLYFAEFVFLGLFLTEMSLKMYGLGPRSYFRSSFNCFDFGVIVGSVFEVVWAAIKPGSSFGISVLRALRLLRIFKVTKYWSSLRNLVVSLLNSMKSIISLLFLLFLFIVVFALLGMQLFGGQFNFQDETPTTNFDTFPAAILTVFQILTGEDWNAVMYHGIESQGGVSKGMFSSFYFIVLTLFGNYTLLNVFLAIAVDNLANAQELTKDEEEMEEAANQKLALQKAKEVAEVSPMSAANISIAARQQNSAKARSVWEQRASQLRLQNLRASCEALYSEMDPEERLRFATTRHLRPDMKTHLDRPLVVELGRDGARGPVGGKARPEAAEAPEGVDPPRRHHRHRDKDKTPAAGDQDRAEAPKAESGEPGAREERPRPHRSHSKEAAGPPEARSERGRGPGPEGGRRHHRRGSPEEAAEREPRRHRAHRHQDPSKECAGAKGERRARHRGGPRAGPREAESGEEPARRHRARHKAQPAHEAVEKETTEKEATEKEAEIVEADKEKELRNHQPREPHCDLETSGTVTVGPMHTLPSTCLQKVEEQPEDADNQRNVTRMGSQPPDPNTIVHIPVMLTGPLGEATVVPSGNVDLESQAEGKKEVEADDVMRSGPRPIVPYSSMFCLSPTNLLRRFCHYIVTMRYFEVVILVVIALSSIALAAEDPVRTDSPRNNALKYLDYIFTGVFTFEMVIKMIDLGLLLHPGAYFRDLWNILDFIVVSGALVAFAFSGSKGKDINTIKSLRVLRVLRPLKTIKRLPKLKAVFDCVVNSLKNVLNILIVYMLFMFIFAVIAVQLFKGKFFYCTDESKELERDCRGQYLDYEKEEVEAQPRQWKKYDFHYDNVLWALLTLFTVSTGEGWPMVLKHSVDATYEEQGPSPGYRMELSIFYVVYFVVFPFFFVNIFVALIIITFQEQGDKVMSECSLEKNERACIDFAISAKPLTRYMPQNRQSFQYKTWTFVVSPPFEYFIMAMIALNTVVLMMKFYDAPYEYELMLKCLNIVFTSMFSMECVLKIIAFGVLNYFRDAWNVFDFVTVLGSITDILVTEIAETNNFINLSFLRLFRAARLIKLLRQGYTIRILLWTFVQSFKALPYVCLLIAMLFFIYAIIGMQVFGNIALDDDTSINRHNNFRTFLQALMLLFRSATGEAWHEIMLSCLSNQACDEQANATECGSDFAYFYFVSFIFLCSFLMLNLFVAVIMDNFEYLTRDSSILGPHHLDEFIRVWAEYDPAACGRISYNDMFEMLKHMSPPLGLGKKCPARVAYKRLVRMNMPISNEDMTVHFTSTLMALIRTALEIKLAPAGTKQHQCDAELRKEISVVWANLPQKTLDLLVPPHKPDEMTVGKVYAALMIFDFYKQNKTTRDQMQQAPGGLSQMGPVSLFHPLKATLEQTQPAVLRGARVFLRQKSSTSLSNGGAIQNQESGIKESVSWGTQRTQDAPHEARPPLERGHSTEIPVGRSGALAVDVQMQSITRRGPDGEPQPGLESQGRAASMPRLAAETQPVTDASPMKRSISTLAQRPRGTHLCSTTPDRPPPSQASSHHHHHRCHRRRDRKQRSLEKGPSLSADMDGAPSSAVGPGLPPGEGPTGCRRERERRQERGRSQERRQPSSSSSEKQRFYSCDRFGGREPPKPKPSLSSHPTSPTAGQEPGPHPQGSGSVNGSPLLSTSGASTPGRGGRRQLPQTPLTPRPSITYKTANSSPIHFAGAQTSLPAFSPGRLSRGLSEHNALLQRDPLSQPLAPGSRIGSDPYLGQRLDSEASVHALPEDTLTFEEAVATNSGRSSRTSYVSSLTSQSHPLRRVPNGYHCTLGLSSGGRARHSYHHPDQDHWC
# T1 sequence (P54284 whole entry, further chain): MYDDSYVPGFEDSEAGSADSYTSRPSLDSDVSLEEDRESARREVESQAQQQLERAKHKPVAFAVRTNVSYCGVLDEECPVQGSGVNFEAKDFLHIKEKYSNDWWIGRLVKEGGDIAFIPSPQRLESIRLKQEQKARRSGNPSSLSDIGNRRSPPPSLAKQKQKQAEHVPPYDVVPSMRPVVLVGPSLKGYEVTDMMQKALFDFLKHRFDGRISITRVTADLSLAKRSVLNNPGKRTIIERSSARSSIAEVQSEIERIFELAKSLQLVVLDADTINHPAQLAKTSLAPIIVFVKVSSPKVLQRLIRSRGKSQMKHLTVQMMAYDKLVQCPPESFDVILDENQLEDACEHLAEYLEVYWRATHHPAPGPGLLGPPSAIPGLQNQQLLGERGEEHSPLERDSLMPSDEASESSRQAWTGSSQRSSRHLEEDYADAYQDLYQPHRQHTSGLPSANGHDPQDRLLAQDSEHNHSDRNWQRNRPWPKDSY
# T1 sequence (P54289 25-1103, further chain): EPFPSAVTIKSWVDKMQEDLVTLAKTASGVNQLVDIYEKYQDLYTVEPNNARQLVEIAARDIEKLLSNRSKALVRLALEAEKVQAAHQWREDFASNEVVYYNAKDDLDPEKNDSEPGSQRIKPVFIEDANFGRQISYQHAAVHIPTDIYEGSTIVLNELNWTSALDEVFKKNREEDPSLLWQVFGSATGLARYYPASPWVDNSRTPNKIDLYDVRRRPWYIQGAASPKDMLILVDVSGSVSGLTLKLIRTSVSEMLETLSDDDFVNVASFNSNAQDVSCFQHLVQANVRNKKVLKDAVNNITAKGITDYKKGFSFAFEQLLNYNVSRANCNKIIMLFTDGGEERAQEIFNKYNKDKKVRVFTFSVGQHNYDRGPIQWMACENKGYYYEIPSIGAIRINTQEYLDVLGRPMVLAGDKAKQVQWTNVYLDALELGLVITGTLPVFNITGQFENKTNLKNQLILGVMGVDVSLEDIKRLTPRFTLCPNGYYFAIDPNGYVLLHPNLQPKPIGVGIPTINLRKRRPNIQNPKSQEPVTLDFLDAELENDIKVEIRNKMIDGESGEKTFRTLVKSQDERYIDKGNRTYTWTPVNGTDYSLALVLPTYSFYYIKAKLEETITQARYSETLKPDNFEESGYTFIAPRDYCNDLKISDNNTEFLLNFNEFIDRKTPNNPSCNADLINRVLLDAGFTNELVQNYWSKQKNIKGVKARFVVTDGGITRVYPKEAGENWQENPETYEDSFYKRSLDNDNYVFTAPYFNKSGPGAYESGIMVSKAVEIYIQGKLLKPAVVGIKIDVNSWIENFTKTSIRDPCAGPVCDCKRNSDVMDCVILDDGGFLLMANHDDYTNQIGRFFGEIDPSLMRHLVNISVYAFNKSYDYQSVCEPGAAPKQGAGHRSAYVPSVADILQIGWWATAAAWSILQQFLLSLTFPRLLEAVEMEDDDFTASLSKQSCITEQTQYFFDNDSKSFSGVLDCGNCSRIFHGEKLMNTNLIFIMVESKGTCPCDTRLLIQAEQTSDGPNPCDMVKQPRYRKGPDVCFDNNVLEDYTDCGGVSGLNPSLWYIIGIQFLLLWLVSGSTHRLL
row,Compound,Activity Category: %-Inhib (CaV2.2) @3 μM @30 mM KCl
1,CC(C)Cn1c(C(F)(F)F)cc(-c2ccc(F)cc2)c1C(=O)N(C)Cc1cnc(N(C)C)nc1 [Example 060],A (%-Inhibition >95%)

# Same assay, conditions: 3 μM compound; 30 mM KCl assay buffer (inactivated channel state); HEK293 cells stably expressing human CaV2.2; read-out: Activity Category: %-Inhib (CaV2.2) @3 μM @30 mM KCl
row,Compound,inhibition at 3 µM [%]
1,"Cc1cnc(CN(C)C(=O)c2c(-c3ccc(F)cc3)cc(C(F)(F)F)n2CC(C)C)cn1 [Example 049, 3-(4-Fluorophenyl)-N-methyl-1-(2-methyl-propyl)-N-[(5-methyl-pyrazin-2-yl)-methyl]-5-(trifluoromethyl)-1H-pyrrole-2-carboxylic acid amide]",> 95
2,"CC(C)Cn1c(C(F)(F)F)cc(-c2ccc(F)cc2)c1C(=O)N(C)CCS(C)(=O)=O [Example 050, 3-(4-Fluorophenyl)-N-methyl-1-(2-methyl-propyl)-N-(2-methylsulfonyl-ethyl)-5-(trifluoromethyl)-1H-pyrrole-2-carboxylic acid amide]",75 to 95
3,"Cc1c(-c2ccc(Cl)cc2)c(C(=O)N(C)C2(C(N)=O)CC2)n(CC(C)C)c1C(F)(F)F [Example 051, N-(1-Carbamoyl-cyclopropyl)-3-(4-chlorophenyl)-N,4-dimethyl-1-(2-methyl-propyl)-5-(trifluoromethyl)-1H-pyrrole-2-carboxylic acid amide]",> 95
4,"Cc1c(-c2ccc(Cl)cc2)c(C(=O)N(C)CC(C)(C)C(N)=O)n(CC(C)C)c1C(F)(F)F [Example 052, N-(2-Carbamoyl-2-methyl-propyl)-3-(4-chlorophenyl)-N,4-dimethyl-1-(2-methyl-propyl)-5-(trifluoromethyl)-1H-pyrrole-2-carboxylic acid amide]",75 to 95
5,"CC(C)Cn1c(C(F)(F)F)cc(-c2ccc(F)cc2)c1C(=O)N(C)CC(C)(C)C [Example 053, N-(2,2-Dimethyl-propyl)-3-(4-fluorophenyl)-N-methyl-1-(2-methyl-propyl)-5-(trifluoromethyl)-1H-pyrrole-2-carboxylic acid amide]",40 to 75
6,"CC(C)Cn1c(C(F)(F)F)cc(-c2ccc(F)cc2)c1C(=O)N(C)CC(C)(C)CN1CCOCC1 [Example 054, N-(2,2-Dimethyl-3-morpholin-4-yl-propyl)-3-(4-fluorophenyl)-N-methyl-1-(2-methyl-propyl)-5-(trifluoromethyl)-1H-pyrrole-2-carboxylic acid amide]",75 to 95
7,"Cc1c(-c2ccc(Cl)cc2)c(C(=O)N(C)CC(C)(C)CO)n(CC(C)C)c1C(F)(F)F [Example 055, 3-(4-Chlorophenyl)-N-(3-hydroxy-2,2-dimethyl-propyl)-N,4-dimethyl-1-(2-methyl-propyl)-5-(trifluoromethyl)-1H-pyrrole-2-carboxylic acid amide]",> 95
8,"CC(C)Cn1c(C(F)(F)F)cc(-c2ccc(F)cc2)c1C(=O)N(C)CC(C)(C)CO [Example 056, 3-(4-Fluorophenyl)-N-(3-hydroxy-2,2-dimethyl-propyl)-N-methyl-1-(2-methyl-propyl)-5-(trifluoromethyl)-1H-pyrrole-2-carboxylic acid amide]",75 to 95
9,"Cc1cc(CN(C)C(=O)c2c(-c3ccc(Cl)cc3)c(C)c(C(F)(F)F)n2CC(C)C)no1 [Example 057, 3-(4-Chlorophenyl)-N,4-dimethyl-N-[(5-methyl-isoxazol-3-yl)-methyl]-1-(2-methyl-propyl)-5-(trifluoromethyl)-1H-pyrrole-2-carboxylic acid amide]",> 95
10,"CC(C)Cn1c(C(F)(F)F)cc(-c2ccc(F)cc2)c1C(=O)N(C)CC1CCOC1 (stereo not drawn) [Example 058, 3-(4-Fluorophenyl)-N-methyl-1-(2-methyl-propyl)-N-(tetrahydro-furan-3-yl-methyl)-5-(trifluoromethyl)-1H-pyrrole-2-carboxylic acid amide]",> 95
11,"Cc1cnc(CN(C)C(=O)c2c(-c3ccc(Cl)cc3)c(C)c(C(F)(F)F)n2CC(C)C)cn1 [Example 059, 3-(4-Chlorophenyl)-N,4-dimethyl-1-(2-methyl-propyl)-N-[(5-methyl-pyrazin-2-yl)-methyl]-5-(trifluoromethyl)-1H-pyrrole-2-carboxylic acid amide]",> 95
12,"Cc1c(-c2ccc(Cl)cc2)c(C(=O)N(C)CCS(C)(=O)=O)n(CC(C)C)c1C(F)(F)F [Example 061, 3-(4-Chlorophenyl)-N,4-dimethyl-1-(2-methyl-propyl)-N-(2-methylsulfonyl-ethyl)-5-(trifluoromethyl)-1H-pyrrole-2-carboxylic acid amide]",> 95
13,"Cc1noc(C2CCN(C(=O)c3c(-c4ccc(Cl)cc4)c(C)c(C(F)(F)F)n3CC(C)C)CC2)n1 [Example 062, [3-(4-Chlorophenyl)-4-methyl-1-(2-methyl-propyl)-5-(trifluoromethyl)-1H-pyrrol-2-yl]-[4-(3-methyl-[1,2,4]oxadiazol-5-yl)-piperidin-1-yl]-methanone]",75 to 95
14,"CC(C)Cn1c(C(F)(F)F)cc(-c2ccc(F)cc2)c1C(=O)N1CCNC(=O)C1 [Example 063, 4-[3-(4-Fluorophenyl)-1-(2-methyl-propyl)-5-(trifluoromethyl)-1H-pyrrole-2-carbonyl]-piperazin-2-one]",40 to 75
15,"Cc1c(-c2ccc(Cl)cc2)c(C(=O)N2CCOC(C)(C)C2)n(CC(C)C)c1C(F)(F)F [Example 064, [3-(4-Chlorophenyl)-4-methyl-1-(2-methyl-propyl)-5-(trifluoromethyl)-1H-pyrrol-2-yl]-(2,2-dimethyl-morpholin-4-yl)-methanone]",75 to 95
16,"CC(C)Cn1c(C(F)(F)F)cc(-c2ccc(F)cc2)c1C(=O)N1CCOCC1 [Example 065, [3-(4-Fluorophenyl)-1-(2-methyl-propyl)-5-(trifluoromethyl)-1H-pyrrol-2-yl]-morpholin-4-yl-methanone]",75 to 95
17,"CC(C)Cn1c(C(F)(F)F)cc(-c2ccc(F)cc2)c1C(=O)NC1CC1 [Example 066, N-Cyclopropyl-3-(4-fluorophenyl)-1-(2-methyl-propyl)-5-(trifluoromethyl)-1H-pyrrole-2-carboxylic acid amide]",75 to 95
18,"Cc1c(-c2ccc(Cl)cc2)c(C(=O)N(C)CC(C)(C)C#N)n(CC(C)C)c1C(F)(F)F [Example 067, 3-(4-Chlorophenyl)-N-(2-cyano-2-methyl-propyl)-N,4-dimethyl-1-(2-methyl-propyl)-5-(trifluoromethyl)-1H-pyrrole-2-carboxylic acid amide]",40 to 75
19,"Cc1c(-c2ccc(Cl)cc2)c(C(=O)N(C)CCS(C)(=O)=O)n(CC2(C)CC2)c1C(F)(F)F [Example 068, 3-(4-Chlorophenyl)-N,4-dimethyl-1-[(1-methyl-cyclopropyl)-methyl]-N-(2-methylsulfonyl-ethyl)-5-(trifluoromethyl)-1H-pyrrole-2-carboxylic acid amide]",> 95
20,"CN(Cc1cnc(N(C)C)nc1)C(=O)c1c(-c2ccc(F)cc2)cc(C(F)(F)F)n1CC1CCCO1 (stereo not drawn) [Example 069, N-[(2-Dimethylamino-pyrimidin-5-yl)-methyl]-3-(4-fluorophenyl)-N-methyl-1-(tetrahydro-furan-2-yl-methyl)-5-(trifluoromethyl)-1H-pyrrole-2-carboxylic acid amide]",75 to 95
21,"CN(C(=O)c1c(-c2ccc(F)cc2)cc(C(F)(F)F)n1CC1CCCO1)C1CCOCC1 (stereo not drawn) [Example 070, 3-(4-Fluorophenyl)-N-methyl-1-(tetrahydro-furan-2-yl-methyl)-N-tetrahydro-pyran-4-yl-5-(trifluoromethyl)-1H-pyrrole-2-carboxylic acid amide]",75 to 95
22,"CN(C(=O)c1c(-c2ccc(F)cc2)cc(C(F)(F)F)n1CC1CCCO1)C1CCS(=O)(=O)C1 (stereo not drawn) [Example 071, N-(1,1-Dioxo-thiolan-3-yl)-3-(4-fluorophenyl)-N-methyl-1-(tetrahydro-furan-2-yl-methyl)-5-(trifluoromethyl)-1H-pyrrole-2-carboxylic acid amide]",40 to 75
23,"CN(CC(C)(C)C)C(=O)c1c(-c2ccc(F)cc2)cc(C(F)(F)F)n1CC1CCCO1 (stereo not drawn) [Example 073, N-(2,2-Dimethyl-propyl)-3-(4-fluorophenyl)-N-methyl-1-(tetrahydro-furan-2-yl-methyl)-5-(trifluoromethyl)-1H-pyrrole-2-carboxylic acid amide]",75 to 95
